Consider 29 compounds from patent US9056874B2, “Complement pathway modulators and uses thereof” (NOVARTIS AG, priority 2012, dated 2015).

The assay concerns the target factor B (Homo sapiens, UniProt P00751). Description: factor B inhibition assay of Biological Example 1. The assay is classed as biochemical. More on the design: CVF-Bb complex prepared from purified cobra venom factor (1 μM), recombinant human complement factor B; made in house; host or cells: drosophila cells (factor B); E. coli (factor D used to form the complex). The conditions noted are these: IC50 (nM), assay of Biological Example 1 (Table 1).

factor B, sequence (P00751 260-764 limits assumed): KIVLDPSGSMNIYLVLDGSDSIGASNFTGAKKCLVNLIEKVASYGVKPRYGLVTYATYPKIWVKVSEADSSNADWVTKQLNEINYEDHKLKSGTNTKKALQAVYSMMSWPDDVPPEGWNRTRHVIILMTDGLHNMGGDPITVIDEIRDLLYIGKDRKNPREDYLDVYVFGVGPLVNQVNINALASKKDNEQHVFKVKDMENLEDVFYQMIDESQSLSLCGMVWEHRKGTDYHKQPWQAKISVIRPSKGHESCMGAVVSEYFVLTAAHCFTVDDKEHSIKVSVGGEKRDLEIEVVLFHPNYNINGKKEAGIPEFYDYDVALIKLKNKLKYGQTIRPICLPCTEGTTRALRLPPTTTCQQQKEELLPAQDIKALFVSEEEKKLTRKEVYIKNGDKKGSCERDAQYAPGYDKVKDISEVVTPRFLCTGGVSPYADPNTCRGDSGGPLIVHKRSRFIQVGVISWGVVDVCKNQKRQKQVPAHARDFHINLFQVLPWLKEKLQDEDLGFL
factor B, sequence (Q91132 23-649 partner limits assumed): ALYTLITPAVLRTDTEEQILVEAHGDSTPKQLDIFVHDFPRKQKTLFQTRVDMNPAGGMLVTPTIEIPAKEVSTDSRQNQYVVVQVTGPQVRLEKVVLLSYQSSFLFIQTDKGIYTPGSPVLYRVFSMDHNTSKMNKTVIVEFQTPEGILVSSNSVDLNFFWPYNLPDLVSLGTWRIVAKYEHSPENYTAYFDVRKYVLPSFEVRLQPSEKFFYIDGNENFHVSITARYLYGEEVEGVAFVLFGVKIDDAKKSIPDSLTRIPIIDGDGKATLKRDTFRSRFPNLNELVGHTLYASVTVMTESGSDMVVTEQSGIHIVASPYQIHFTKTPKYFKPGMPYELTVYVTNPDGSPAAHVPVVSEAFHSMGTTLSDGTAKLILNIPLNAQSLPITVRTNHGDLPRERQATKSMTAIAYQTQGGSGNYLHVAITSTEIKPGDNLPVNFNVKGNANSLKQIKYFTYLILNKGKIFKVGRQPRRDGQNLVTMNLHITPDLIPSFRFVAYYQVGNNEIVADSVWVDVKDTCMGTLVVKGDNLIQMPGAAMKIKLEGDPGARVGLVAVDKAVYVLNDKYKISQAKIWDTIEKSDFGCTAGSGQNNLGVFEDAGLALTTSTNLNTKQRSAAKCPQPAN
factor B, sequence (Q91132 733-984 partner limits assumed): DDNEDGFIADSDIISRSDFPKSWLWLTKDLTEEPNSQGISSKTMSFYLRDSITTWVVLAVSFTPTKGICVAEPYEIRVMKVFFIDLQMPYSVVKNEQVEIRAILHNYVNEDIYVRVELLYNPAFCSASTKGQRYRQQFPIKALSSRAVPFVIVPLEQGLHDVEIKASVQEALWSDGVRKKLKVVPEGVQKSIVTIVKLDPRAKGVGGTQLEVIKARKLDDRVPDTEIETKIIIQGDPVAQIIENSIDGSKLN
factor B, sequence (Q91132 1264-1642 partner limits assumed): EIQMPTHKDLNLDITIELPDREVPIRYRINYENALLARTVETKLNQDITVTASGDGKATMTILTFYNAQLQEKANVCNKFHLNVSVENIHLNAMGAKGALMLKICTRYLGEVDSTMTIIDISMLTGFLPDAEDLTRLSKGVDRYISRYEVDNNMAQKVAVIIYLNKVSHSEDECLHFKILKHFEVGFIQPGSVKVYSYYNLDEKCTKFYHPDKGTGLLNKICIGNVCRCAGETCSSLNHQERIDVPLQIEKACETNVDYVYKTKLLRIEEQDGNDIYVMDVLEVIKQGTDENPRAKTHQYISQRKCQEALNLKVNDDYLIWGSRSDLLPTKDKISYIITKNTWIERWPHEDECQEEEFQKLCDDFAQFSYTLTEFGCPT

Broadly, the IC50 is the concentration at which inhibition is half-maximal. With `Cc1cc(C)c2[nH]ccc2c1C(O)(c1nc2cc(C#N)ccc2[nH]1)C(F)(F)F` (single isomer, unassigned; (+)) [80-D b) (+), (+)-2-(1-(5,7-dimethyl-1H-indol-4-yl)-2,2,2-trifluoro-1-hydroxyethyl)-1H-benzo[d]imidazole-5-carbonitrile], the half-inhibitory concentration (IC50) worked out at 4330 nM. Consider `Cc1cc(C2CC2)c(C(O)(c2nc3cc(C#N)ccc3[nH]2)C(F)(F)F)c2cc[nH]c12` (single isomer, unassigned; (+)) [80-E b) (+), (+)-2-(1-(5-cyclopropyl-7-methyl-1H-indol-4-yl)-2,2,2-trifluoro-1-hydroxyethyl)-1H-benzo[d]imidazole-5-carbonitrile], for which the IC50 is 180 nM.

`Cc1cc(C(C)C)c(C(O)(c2nc3cc(C#N)ccc3[nH]2)C(F)(F)F)c2cc[nH]c12` (single isomer, unassigned; (+)) [80-F b) (+), (+)-2-(2,2,2-trifluoro-1-hydroxy-1-(5-isopropyl-7-methyl-1H-indol-4-yl)ethyl)-1H-benzo[d]imidazole-5-carbonitrile]: the IC50 came to 690 nM. With `COC(C)(c1nc2cc(C#N)ccc2[nH]1)c1c(C)cc(C)c2[nH]ccc12` (single isomer, unassigned; (+)) [84-B b) (+), (+)-2-(1-(5,7-dimethyl-1H-indol-4-yl)-1-methoxyethyl)-1H-benzo[d]imidazole-5-carbonitrile], the half-inhibitory concentration (IC50) was found to be 710 nM.

As for `CCc1cc(C)c2[nH]ccc2c1C(C)(OC)c1nc2cc(C#N)ccc2[nH]1` (single isomer, unassigned; (+)) [84-C b) (+), (+)-2-(1-(5-ethyl-7-methyl-1H-indol-4-yl)-1-methoxyethyl)-1H-benzo[d]imidazole-5-carbonitrile], the IC50 amounted to 150 nM. As for `CCc1cc(C)c2[nH]ccc2c1C(OC)(c1nc2cc(C#N)ccc2[nH]1)C(F)(F)F` (single isomer, unassigned; (+)) [84-D b) (+), (+)-2-(1-(5-ethyl-7-methyl-1H-indol-4-yl)-2,2,2-trifluoro-1-methoxyethyl)-1H-benzo[d]imidazole-5-carbonitrile], the figure is 460 nM. As for `COC(C)(c1nc2cc(C#N)ccc2[nH]1)c1c(CC(C)C)cc(C)c2[nH]ccc12` (single isomer, unassigned; (+)) [84-E b) (+), (+)-2-(1-(5-isobutyl-7-methyl-1H-indol-4-yl)-1-methoxyethyl)-1H-benzo[d]imidazole-5-carbonitrile], the figure is 1200 nM; as for `Cc1cc(C)c2[nH]ccc2c1C(N)c1nc2ccc(C#N)cc2[nH]1` (single isomer, unassigned; (+)) [95-B b) (+), (+)-2-(amino(5,7-dimethyl-1H-indol-4-yl)methyl)benzo[d]imidazole-5-carbonitrile], 2140 nM; as for `CCc1cc(C)c2[nH]ccc2c1C(N)c1nc2cc(C#N)ccc2[nH]1` (single isomer, unassigned; (+)) [96-C b) (+), (+)-2-(amino(5-ethyl-7-methyl-1H-indol-4-yl)methyl)-1H-benzo[d]imidazole-5-carbonitrile], 2210 nM. Take `CCc1cc(C)c2[nH]ccc2c1C(C)(N)c1nc2cc(C#N)ccc2[nH]1` (single isomer, unassigned; (+)) [102-C b) (+), (+)-2-(1-amino-1-(5-ethyl-7-methyl-1H-indol-4-yl)ethyl)-1H-benzo[d]imidazole-5-carbonitrile]: the IC50 amounted to 50 nM. Turning to `Cc1cc(C2CC2)c(C(C)(N)c2nc3cc(C#N)ccc3[nH]2)c2cc[nH]c12` (single isomer, unassigned; (+)) [102-D b) (+), (+)-2-(1-amino-1-(5-cyclopropyl-7-methyl-1H-indol-4-yl)ethyl)-1H-benzo[d]imidazole-5-carbonitrile], the 50% inhibitory concentration (IC50) was determined as 6 nM. As for `Cc1cc(Br)c(C(N)(c2nc3cc(C#N)ccc3[nH]2)C(F)(F)F)c2cc[nH]c12` (single isomer, unassigned; (+)) [105-B b) (+), (+)-2-(1-amino-1-(5-bromo-7-methyl-1H-indol-4-yl)-2,2,2-trifluoroethyl)-1H-benzo[d]imidazole-5-carbonitrile], the figure is 90 nM; as for `CNC(c1nc2cc(C#N)ccc2[nH]1)(c1c(Br)cc(C)c2[nH]ccc12)C(F)(F)F` (single isomer, unassigned; (+)) [106 b) (+), (+)-2-(1-(5-bromo-7-methyl-1H-indol-4-yl)-2,2,2-trifluoro-1-(methylamino)ethyl)-1H-benzo[d]imidazole-5-carbonitrile], 150 nM. As for `CCc1cc(C)c2[nH]ccc2c1C(NC)(c1nc2cc(C#N)ccc2[nH]1)C(F)(F)F` (single isomer, unassigned; (+)) [107-B b) (+), (+)-2-(1-(5-ethyl-7-methyl-1H-indol-4-yl)-2,2,2-trifluoro-1-(methylamino)ethyl)-1H-benzo[d]imidazole-5-carbonitrile], the figure is 140 nM; as for `CCc1cc(C)c2[nH]ccc2c1C(N)(c1nc2cc(C#N)ccc2[nH]1)C(F)(F)F` (single isomer, unassigned; (+)) [107-C b) (+)], 400 nM; as for `Cc1cc(C2CC2)c(C(N)(c2nc3cc(C#N)ccc3[nH]2)C(F)(F)F)c2cc[nH]c12` (single isomer, unassigned; (+)) [107-D b) (+), (+)-2-(1-amino-1-(5-cyclopropyl-7-methyl-1H-indol-4-yl)-2,2,2-trifluoroethyl)-1H-benzo[d]imidazole-5-carbonitrile], 50 nM. Regarding `CNC(c1nc2cc(C#N)ccc2[nH]1)(c1c(C2CC2)cc(C)c2[nH]ccc12)C(F)(F)F` (single isomer, unassigned; (+)) [107-E b) (+), (+)-2-(1-(5-cyclopropyl-7-methyl-1H-indol-4-yl)-2,2,2-trifluoro-1-(methylamino)ethyl)-1H-benzo[d]imidazole-5-carbonitrile], the half-inhibitory concentration (IC50) stood at 240 nM. Regarding `COc1cc(C)c2c(c1C(C)(OC)c1nc3cc(C#N)ccc3[nH]1)CCN2` (single isomer, unassigned; (+)) [124 b) (+), (+)-2-(1-methoxy-1-(5-methoxy-7-methylindolin-4-yl)ethyl)-1H-benzo[d]imidazole-5-carbonitrile], the 50% inhibitory concentration (IC50) was found to be 490 nM. As for `COc1cc(C)c2[nH]ccc2c1C(O)c1nc2cc(C#N)ccc2o1` (single isomer, unassigned; (+)) [125-B b) (+), (+)-2-(hydroxy(5-methoxy-7-methyl-1H-indol-4-yl)methyl)benzo[d]oxazole-5-carbonitrile], the IC50 worked out at 180 nM. Then `COc1cc(C)c2[nH]ccc2c1C(O)(c1nc2cc(C#N)ccc2o1)C(F)(F)F` (single isomer, unassigned; (+)) [128-B b) (+), (+)-2-(2,2,2-trifluoro-1-hydroxy-1-(5-methoxy-7-methyl-1H-indol-4-yl)ethyl)benzo[d]oxazole-5-carbonitrile], with 1990 nM; and `COc1cc(C)c2[nH]ccc2c1C(C)(N)c1nc2cc(C#N)ccc2o1` (single isomer, unassigned; (+)) [131-B b) (+), (+)-2-(1-amino-1-(5-methoxy-7-methyl-1H-indol-4-yl)ethyl)benzo[d]oxazole-5-carbonitrile], with 140 nM; and `CCc1cc(C)c2[nH]cc(C(F)(F)F)c2c1C(C)(O)c1nc2cc(C#N)ccc2[nH]1` (single isomer, unassigned; (+)) [Example 88, (+)-2-(1-(5-Ethyl-7-methyl-3-(trifluoromethyl)-1H-indol-4-yl)-1-hydroxyethyl)-1H-benzo[d]imidazole-5-carbonitrile], with 57900 nM. Then `Cc1cc(OC(F)F)c(C(O)c2nc3cc(C#N)ccc3[nH]2)c2cc[nH]c12` (single isomer, unassigned; (-)) [3-B b) (−), (−)-2-((5-(difluoromethoxy)-7-methyl-1H-indol-4-yl)(hydroxy)methyl)-1H-benzo[d]imidazole-5-carbonitrile], with 250 nM. For the compound `Cc1cc(OC(F)F)c(C(C)(N)c2nc3cc(C#N)ccc3[nH]2)c2cc[nH]c12` (single isomer, unassigned; (-)) [5-E b) (−), (−)-2-(1-amino-1-(5-(difluoromethoxy)-7-methyl-1H-indol-4-yl)ethyl)-1H-benzo[d]imidazole-5-carbonitrile], the IC50 turned out to be 40 nM. Consider `COC(C)(c1nc2cc(C#N)ccc2[nH]1)c1c(OC(F)F)cc(C)c2[nH]ccc12` (single isomer, unassigned; (-)) [8-B b) (−), (−)-2-(1-(5-(difluoromethoxy)-7-methyl-1H-indol-4-yl)-1-methoxyethyl)-1H-benzo[d]imidazole-5-carbonitrile], for which the IC50 stood at 900 nM. As to `Cc1cc(S(C)(=O)=O)c(C(C)(N)c2nc3cc(C#N)ccc3[nH]2)c2cc[nH]c12` (single isomer, unassigned; (-)) [13-E b) (−), (−)-2-(1-Amino-1-(7-methyl-5-(methylsulfonyl)-1H-indol-4-yl)ethyl)-1H-benzo[d]imidazole-5-carbonitrile], the IC50 is 1410 nM.

On to `Cc1cc(S(C)(=O)=O)c(C(O)(c2nc3cc(C#N)ccc3[nH]2)C(F)(F)F)c2cc[nH]c12` (single isomer, unassigned; (-)) [14-D b) (−), (−)-2-(2,2,2-trifluoro-1-hydroxy-1-(7-methyl-5-(methylsulfonyl)-1H-indol-4-yl)ethyl)-1H-benzo[d]imidazole-5-carbonitrile], for which the half-maximal inhibitory concentration (IC50) was determined as 270 nM. Turning to `COC(c1nc2cc(C#N)ccc2[nH]1)(c1c(S(C)(=O)=O)cc(C)c2[nH]ccc12)C(F)(F)F` (single isomer, unassigned; (-)) [15-D b) (−), (−)-2-(2,2,2-trifluoro-1-methoxy-1-(7-methyl-5-(methylsulfonyl)-1H-indol-4-yl)ethyl)-1H-benzo[d]imidazole-5-carbonitrile], the IC50 is 680 nM. Then `CNC(c1nc2cc(C#N)ccc2[nH]1)(c1c(S(C)(=O)=O)cc(C)c2[nH]ccc12)C(F)(F)F` (single isomer, unassigned; (-)) [16-B b) (−), (−)-2-(2,2,2-trifluoro-1-(7-methyl-5-(methylsulfonyl)-1H-indol-4-yl)-1-(methylamino)ethyl)-1H-benzo[d]imidazole-5-carbonitrile], with 180 nM.
